Measured values from paper PMC9151520 (Archives of Toxicology, 2022).
Where “and” joins values, the source holds several entries; their conditions need not be identical. Equal entries are not always repeated. Structures can show the parent of a compound that is named as a salt. Where two headings read alike, the source gives them in different places.

Columns and labels:
[1] = tested on: p53 signaling (p53RE-bla HCT-116 cells)
[2] = tested on: p53 signaling (p53RE-bla HCT-116 cells); remark: listed apart in the source
[3] = tested on: p53 signaling (p53RE-bla HCT-116 cells); assay: cells; format: cell-based
[4] = tested on: p53RE-bla HCT-116 cells
[5] = Homo sapiens, HCT-116, read-out: p53 activation EC50, primary screening
[6] = Homo sapiens, HCT-116, read-out: p53 activation efficacy, primary screening
[7] = read-out: p53 activation EC50, primary screening
[8] = Homo sapiens, HCT-116, read-out: EC50, p53 activation, primary screening
[9] = Homo sapiens, HCT-116, read-out: Efficacy, p53 activation, primary screening
[10] = read-out: p53 activation EC50, cherry pick confirmation
[11] = read-out: Viability EC50, cherry pick confirmation

Compound | p53 activation EC50, cherry pick confirmation [1] | p53 activation EC50, primary screening [1] | p53 activation efficacy, cherry pick confirmation [1] | p53 activation efficacy, primary screening [1] | p53 activation EC50, cherry pick confirmation [2] | p53 activation EC50, primary screening [2] | p53 activation efficacy, cherry pick confirmation [2] | p53 activation efficacy, primary screening [2] | p53 activation EC50, cherry pick confirmation [3] | p53 activation efficacy, cherry pick confirmation [3] | EC50 [3, 5] [µM] | Emax [3, 6] [%] | Viability EC50, cherry pick confirmation [4] | Viability EC50, primary screening [4] | Viability efficacy, cherry pick confirmation [4] | Viability efficacy, primary screening [4] | p53 activation efficacy, primary screening [3] | EC50, p53 activation, cherry pick confirmation [1] | EC50, p53 activation, primary screening [1] | Efficacy, p53 activation, cherry pick confirmation [1] | other results
CN(C)c1ccc(C(=O)c2ccc(N(C)C)cc2)cc1 [Michler's ketone] | inactive | inactive | inactive | inactive | inactive | inactive | inactive | inactive | inactive | inactive | 2.8 | 37.9 | inactive | inactive | inactive | inactive |  |  |  |  | 
NS(=O)(=O)O [Sulfamic acid] | inactive |  | inactive |  | inactive | inactive | inactive |  | inactive | inactive |  |  | inactive | inactive | inactive | inactive | inactive |  |  |  | EC50 [1, 7]: 24.2 µM; p53 activation EC50, primary screening [3]: inactive
COc1cccc2c1C(=O)c1c(O)c3c(c(O)c1C2=O)C[C@@](O)(C(=O)CO)C[C@@H]3O[C@H]1C[C@H](N)[C@H](O)[C@H](C)O1 [Adriamycin hydrochloride] |  |  |  |  |  |  |  |  |  |  |  |  |  |  |  |  |  | inactive | inactive | inactive | Efficacy, p53 activation, primary screening [1]: inactive; EC50, p53 activation, cherry pick confirmation [2]: inactive; EC50, p53 activation, primary screening [2]: inactive; Efficacy, p53 activation, cherry pick confirmation [2]: inactive; Efficacy, p53 activation, primary screening [2]: inactive; EC50 ([3]; Homo sapiens, HCT-116, read-out: EC50, p53 activation, cherry pick confirmation): 1.45 µM; EC50 [3, 8]: 0.963 µM; Emax ([3]; Homo sapiens, HCT-116, read-out: Efficacy, p53 activation, cherry pick confirmation): 335%; Emax [3, 9]: 220%; EC50, viability, cherry pick confirmation [4]: inactive; EC50, viability, primary screening [4]: inactive; Efficacy, viability, cherry pick confirmation [4]: inactive; Efficacy, viability, primary screening [4]: inactive
CCCSc1ccc2nc(NC(=O)OC)[nH]c2c1 [Albendazole] | inactive | inactive | inactive | inactive | inactive | inactive | inactive | inactive |  |  | 0.517 | 40.1 | inactive | inactive | inactive | inactive |  |  |  |  | EC50 ([3]; Homo sapiens, HCT-116, read-out: p53 activation EC50, cherry pick confirmation): 0.113 µM; Emax ([3]; Homo sapiens, HCT-116, read-out: p53 activation efficacy, cherry pick confirmation): 31.1%
Nc1cc(Cl)ccc1O [2-Amino-4-chlorophenol] |  |  |  |  |  |  |  |  |  |  |  |  |  |  |  |  |  | inactive | inactive | inactive | Efficacy, p53 activation, primary screening [1]: inactive; EC50, p53 activation, cherry pick confirmation [2]: inactive; EC50, p53 activation, primary screening [2]: inactive; Efficacy, p53 activation, cherry pick confirmation [2]: inactive; Efficacy, p53 activation, primary screening [2]: inactive; EC50, p53 activation, cherry pick confirmation [3]: inactive; Efficacy, p53 activation, cherry pick confirmation [3]: inactive; EC50 [3, 8]: 38.2 µM; Emax [3, 9]: 53.8%; EC50, viability, cherry pick confirmation [4]: inactive; EC50, viability, primary screening [4]: inactive; Efficacy, viability, cherry pick confirmation [4]: inactive; Efficacy, viability, primary screening [4]: inactive
N#Cc1c[nH]cc1-c1cccc2c1OC(F)(F)O2 [Fludioxonil] | inactive | inactive | inactive | inactive | inactive | inactive | inactive | inactive | inactive | inactive | 15.6 | 65.1 | inactive | inactive | inactive | inactive |  |  |  |  | 
Tannic acid | inactive | inactive | inactive | inactive | inactive | inactive | inactive | inactive |  | 97.9477 |  |  | inactive | inactive | inactive | inactive | 41.698 |  |  |  | EC50 [3, 10]: 7.77 µM
O=c1c(O)c(-c2ccc(O)c(O)c2)oc2cc(O)cc(O)c12 [Quercetin] |  |  |  |  |  |  |  |  |  |  |  |  |  |  |  |  |  | inactive | inactive | inactive | Efficacy, p53 activation, primary screening [1]: inactive; EC50, p53 activation, cherry pick confirmation [2]: inactive; EC50, p53 activation, primary screening [2]: inactive; Efficacy, p53 activation, cherry pick confirmation [2]: inactive; Efficacy, p53 activation, primary screening [2]: inactive; EC50, p53 activation, cherry pick confirmation [3]: inactive; Efficacy, p53 activation, cherry pick confirmation [3]: inactive; EC50 [3, 8]: 45.8 µM; Emax [3, 9]: 31.7%; EC50, viability, cherry pick confirmation [4]: inactive; EC50, viability, primary screening [4]: inactive; Efficacy, viability, cherry pick confirmation [4]: inactive; Efficacy, viability, primary screening [4]: inactive
C=CCOC(Cn1ccnc1)c1ccc(Cl)cc1Cl (stereo not shown) [Imazalil] |  |  |  |  |  |  |  |  |  |  |  |  |  |  |  |  |  | inactive | inactive | inactive | Efficacy, p53 activation, primary screening [1]: inactive; EC50, p53 activation, cherry pick confirmation [2]: inactive; EC50, p53 activation, primary screening [2]: inactive; Efficacy, p53 activation, cherry pick confirmation [2]: inactive; Efficacy, p53 activation, primary screening [2]: inactive; EC50, p53 activation, cherry pick confirmation [3]: inactive; Efficacy, p53 activation, cherry pick confirmation [3]: inactive; EC50 [3, 8]: 49.6 µM; Emax [3, 9]: 41.7%; EC50, viability, cherry pick confirmation [4]: inactive; EC50, viability, primary screening [4]: inactive; Efficacy, viability, cherry pick confirmation [4]: inactive; Efficacy, viability, primary screening [4]: inactive
COc1ccc(C(=O)/C(Br)=C\C(=O)[O-])cc1.[Na+] [Cytembena] | inactive | inactive | inactive | inactive | inactive | inactive | inactive | inactive | inactive | inactive |  |  | inactive | inactive |  | inactive | 55.202 |  |  |  | EC50 [3, 7]: 21 µM; EC50 [4, 11]: 43.2 µM
CCC(C)c1cc([N+](=O)[O-])cc([N+](=O)[O-])c1OC(=O)OC(C)C (stereo not shown) [Dinobuton] | inactive | inactive | inactive | inactive | inactive | inactive | inactive | inactive | inactive | inactive | 49.5 | 74.7 | inactive | inactive | inactive | inactive |  |  |  |  | 
N#CSCSC#N [Methylene bis(thiocyanate)] | inactive | inactive | inactive | inactive | inactive | inactive | inactive | inactive |  | 39.736 |  |  |  |  |  |  | 49.8917 |  |  |  | EC50 [3, 10]: 10.1 µM; EC50 [3, 7]: 11.8 µM; EC50 [4, 11]: 38.1 µM and 36 µM and 40.4 µM; EC50 ([4]; read-out: Viability EC50, primary screening): 39.6 µM and 47 µM and 35.4 µM
